In ChEMBL document CHEMBL2007661, “Compounds: GSK PKIS; Assays: UNC Frye lab” (2012) one finds inhibition data, which are given here for 32 compounds.

Assay [1] addresses T1, Inhibitor of nuclear factor kappa-B kinase subunit beta (Homo sapiens) (UniProt O14920).
T1 sequence (whole entry): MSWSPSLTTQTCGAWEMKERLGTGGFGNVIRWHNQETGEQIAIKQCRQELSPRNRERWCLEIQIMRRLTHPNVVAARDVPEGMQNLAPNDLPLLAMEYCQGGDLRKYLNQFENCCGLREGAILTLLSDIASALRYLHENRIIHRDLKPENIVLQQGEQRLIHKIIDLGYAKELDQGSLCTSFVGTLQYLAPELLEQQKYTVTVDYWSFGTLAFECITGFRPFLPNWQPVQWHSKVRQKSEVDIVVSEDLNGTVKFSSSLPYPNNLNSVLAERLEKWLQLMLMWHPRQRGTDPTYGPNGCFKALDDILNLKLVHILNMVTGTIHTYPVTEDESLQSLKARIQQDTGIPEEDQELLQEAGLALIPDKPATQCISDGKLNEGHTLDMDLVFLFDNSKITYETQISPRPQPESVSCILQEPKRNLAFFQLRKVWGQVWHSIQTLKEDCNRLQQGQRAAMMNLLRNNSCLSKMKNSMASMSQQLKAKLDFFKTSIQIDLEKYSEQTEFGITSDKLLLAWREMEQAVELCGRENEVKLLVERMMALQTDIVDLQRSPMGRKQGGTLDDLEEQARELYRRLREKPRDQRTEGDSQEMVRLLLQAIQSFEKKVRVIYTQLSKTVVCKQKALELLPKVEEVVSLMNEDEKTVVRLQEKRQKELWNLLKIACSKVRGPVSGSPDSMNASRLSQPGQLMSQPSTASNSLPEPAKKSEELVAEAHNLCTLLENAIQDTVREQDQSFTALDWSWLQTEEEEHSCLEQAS
As to conditions: at 1 µM.

In assay [2] the target is T2, Inhibitor of nuclear factor kappa-B kinase subunit epsilon (Homo sapiens) (UniProt Q14164).
T2 sequence (whole entry): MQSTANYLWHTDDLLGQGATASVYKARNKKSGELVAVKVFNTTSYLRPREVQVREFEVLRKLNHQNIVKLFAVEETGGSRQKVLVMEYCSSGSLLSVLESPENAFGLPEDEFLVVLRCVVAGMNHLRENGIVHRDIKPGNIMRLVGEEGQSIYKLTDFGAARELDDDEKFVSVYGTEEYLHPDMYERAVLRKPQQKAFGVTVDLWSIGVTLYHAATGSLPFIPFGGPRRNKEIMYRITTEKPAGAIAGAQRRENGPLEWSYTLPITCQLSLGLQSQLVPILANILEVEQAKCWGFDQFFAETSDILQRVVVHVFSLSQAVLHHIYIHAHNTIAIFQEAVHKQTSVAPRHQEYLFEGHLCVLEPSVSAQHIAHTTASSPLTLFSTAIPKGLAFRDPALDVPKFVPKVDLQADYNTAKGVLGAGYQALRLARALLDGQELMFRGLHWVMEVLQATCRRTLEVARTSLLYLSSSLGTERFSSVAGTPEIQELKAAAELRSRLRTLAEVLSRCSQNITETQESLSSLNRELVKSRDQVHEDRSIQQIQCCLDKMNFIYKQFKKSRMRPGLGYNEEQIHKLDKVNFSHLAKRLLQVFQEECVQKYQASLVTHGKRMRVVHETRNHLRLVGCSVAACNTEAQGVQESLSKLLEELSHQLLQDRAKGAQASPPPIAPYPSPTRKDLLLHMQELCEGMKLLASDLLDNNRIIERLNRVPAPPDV
The note with it: at 1 µM.

Assay [3] has as its target T3, Tyrosine-protein kinase Mer (Homo sapiens) (UniProt Q12866).
T3 sequence (whole entry): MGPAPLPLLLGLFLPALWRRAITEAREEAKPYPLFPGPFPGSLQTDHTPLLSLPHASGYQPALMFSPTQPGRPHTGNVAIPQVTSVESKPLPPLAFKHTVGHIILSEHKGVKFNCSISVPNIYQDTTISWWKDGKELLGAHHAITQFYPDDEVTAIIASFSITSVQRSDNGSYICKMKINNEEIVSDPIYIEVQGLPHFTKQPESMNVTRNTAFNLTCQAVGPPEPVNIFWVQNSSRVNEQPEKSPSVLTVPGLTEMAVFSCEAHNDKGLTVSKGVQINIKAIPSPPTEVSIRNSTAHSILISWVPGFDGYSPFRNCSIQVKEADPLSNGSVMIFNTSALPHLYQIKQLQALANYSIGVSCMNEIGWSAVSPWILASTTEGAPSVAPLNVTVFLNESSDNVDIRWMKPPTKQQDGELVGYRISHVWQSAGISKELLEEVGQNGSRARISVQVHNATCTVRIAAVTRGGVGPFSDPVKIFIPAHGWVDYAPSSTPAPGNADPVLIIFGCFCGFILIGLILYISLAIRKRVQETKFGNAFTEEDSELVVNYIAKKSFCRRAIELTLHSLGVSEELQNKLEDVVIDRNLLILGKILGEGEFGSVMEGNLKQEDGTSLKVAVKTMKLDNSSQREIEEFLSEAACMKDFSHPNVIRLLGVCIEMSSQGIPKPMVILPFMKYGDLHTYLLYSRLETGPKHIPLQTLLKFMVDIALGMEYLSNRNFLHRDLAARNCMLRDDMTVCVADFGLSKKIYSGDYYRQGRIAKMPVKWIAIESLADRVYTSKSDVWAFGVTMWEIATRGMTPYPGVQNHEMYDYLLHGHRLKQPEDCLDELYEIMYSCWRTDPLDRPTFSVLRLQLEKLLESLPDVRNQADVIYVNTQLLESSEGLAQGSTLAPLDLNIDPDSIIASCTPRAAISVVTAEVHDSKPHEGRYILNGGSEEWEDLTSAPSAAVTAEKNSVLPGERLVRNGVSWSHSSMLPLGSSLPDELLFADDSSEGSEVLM
As to conditions: at 10 µM.

“And” between values parts separate entries of the source, which are not always exact repeats. Equal entries are not always repeated.

A word on the inhibition: it is the drop in the measured response relative to a control, in per cent. As to `CNC(=O)c1cncc(/C=C/c2c(C)cccc2C)c1`, the inhibition was 1% and -2% in assay [1]; 0% and -1% in assay [2]; -3% in assay [3].

As for `Cc1ccc(NC(=O)c2ccnc(N3CCCC3)c2)cc1-c1ccc(C(=O)NCC2CC2)cc1`, the inhibition in assay [1] is 2%; in assay [2] it was 5% and 6%; in assay [3], -1%.

With `CC1=C(C(=O)Nc2cc(Cl)c3[nH]ncc3c2)C(c2ccc(C(F)(F)F)cc2)CC(=O)N1` (stereo unspecified), the inhibition in assay [1] was -7% and 0%; in assay [2] it was 1% and 0%; in assay [3], 18%.

With `NS(=O)(=O)c1ccc(N/N=C2\C(=O)Nc3ccc(-c4cnco4)cc32)cc1`, the inhibition in assay [1] is -2%; in assay [2] it was 39% and 41%; in assay [3] it was 16%.

On to `COc1ccc(-c2nn3ncccc3c2-c2ccnc(Nc3ccc(Cl)c(C(F)(F)F)c3)n2)cc1`, for which the inhibition is -4% and -5% in assay [1]; -1% and -2% in assay [2]; 13% in assay [3].

For the compound `COc1cc2ncn(-c3cc(OCCc4ccccc4)c(C(N)=O)s3)c2cc1OC`, the inhibition in assay [1] was 8% and 3%; in assay [2], 10% and 11%; in assay [3], 51%.

On to `c1ccc(-c2n[nH]cc2-c2ccnc(-c3ccc(OCCN4CCOCC4)cc3)c2)nc1`, for which the inhibition was -4% and -10% in assay [1]; -1% and 0% in assay [2]; -1% in assay [3].

As to `CC1=C(C(=O)Nc2ccc3[nH]ncc3c2)C(c2ccc(F)cc2)NC(=O)N1` (stereo unspecified), the inhibition in assay [1] is 4% and -2%; in assay [2] it was 2%; in assay [3], -2%.

Take `CN(C)CCOc1ccc(-c2cc(-c3ccc4c(c3)CCC4=NO)c(-c3ccncc3)o2)cc1`: the inhibition was -1% and -3% in assay [1]; 3% and 4% in assay [2]; 1% in assay [3].

Consider `Cc1cc(-c2ccccn2)cc(C)c1/C=C/c1cncc(-c2nn[nH]n2)c1`, for which the inhibition in assay [1] was -5% and -2%; in assay [2] it was -1% and -2%; in assay [3], -7%.

Consider `CCN(CC)Cc1ccc(Nc2nccc(-c3cnn4ncccc34)n2)cc1`, for which the inhibition in assay [1] is -9% and -7%; in assay [2] it was 18% and 19%; in assay [3], 5%.

As for `CNC(=O)Oc1cc(C)c(/C=C/c2cncc(C(=O)NC)c2)c(C)c1`, the inhibition in assay [1] was 1% and -3%; in assay [2] it was -1%; in assay [3], 48%.

Take `COc1cc(N2CCN(C(C)C)CC2)ccc1Nc1nc(Nc2cccc(F)c2C(=O)O)c2cc[nH]c2n1`: the inhibition in assay [1] is -4% and -3%; in assay [2], -1% and 0%; in assay [3], -2%.

For the compound `Fc1ccc(-c2ncn(C3CCNCC3)c2-c2ccnc(Oc3ccc(F)c(F)c3)n2)cc1`, the inhibition in assay [1] is -3%; in assay [2], -3% and -1%; in assay [3], 67%.

As for `Cc1ccc(Nc2ccnc(Nc3cccc(C(N)=O)c3)n2)cc1O`, the inhibition in assay [1] is -3% and -2%; in assay [2], 26% and 27%; in assay [3], 93%.

Turning to `NC(=O)c1ccc2c(-c3ccnc(NCCCO)n3)c(-c3ccc(F)cc3)nn2c1`, the inhibition in assay [1] was -2% and -1%; in assay [2] it was 1% and 0%; in assay [3], -4%.

On to `COc1ccc2c(-c3ccnc(Nc4cccc(OC(F)(F)F)c4)n3)cnn2n1`, for which the inhibition was -3% and -2% in assay [1]; 44% and 43% in assay [2]; 2% in assay [3].

As for `CCS(=O)(=O)c1ccc(OC)c(Nc2ncc(-c3ccccc3Cl)o2)c1`, the inhibition in assay [1] was -7% and -4%; in assay [2], 2% and 1%; in assay [3], 6%.

`C[C@@H](Oc1cc(-n2cnc3ccc(OC[C@@H](O)CO)cc32)sc1C(N)=O)c1ccccc1Cl`: the inhibition in assay [1] was 1% and 4%; in assay [2], 1% and 3%; in assay [3], -1%.

For the compound `COc1cc2ncn(-c3cc(O[C@H](C)c4ccccc4Cl)c(C(N)=O)s3)c2cc1OC`, the inhibition in assay [1] was 0% and -8%; in assay [2], 3% and 2%; in assay [3] it was -8%.

With `COc1ccc(-c2cc3c(N)ncnc3o2)cc1`, the inhibition in assay [1] was -5% and 1%; in assay [2] it was 2% and -2%; in assay [3], 5%.

Consider `COc1ccc2ncnc(Nc3ccc(OCc4ccccc4)cc3)c2c1`, for which the inhibition in assay [1] was -1% and 4%; in assay [2], 1%; in assay [3], -4%.

As for `CCS(=O)(=O)c1ccc(OC)c(Nc2ncc(-c3cccc(OC)c3)o2)c1`, the inhibition is 3% and 0% in assay [1]; 3% in assay [2]; -1% in assay [3].

For the compound `O=C(O[C@H]1CN[C@H](C#Cc2cc3ncnc(Nc4ccc5c(ccn5Cc5cc(F)ccc5F)c4)c3s2)C1)N1CCOCC1`, the inhibition was 1% and 0% in assay [1]; 1% and -4% in assay [2]; 100% in assay [3].

For `CN(C)c1cc2c(Nc3ccc4c(cnn4Cc4ccccc4)c3)ncnc2cn1`, the inhibition in assay [1] was -3% and -2%; in assay [2] it was -2%; in assay [3], 10%.

For `Cc1ccc(NC(=O)c2ccoc2)cc1-c1ccc(C(=O)NCC2CC2)cc1`, the inhibition in assay [1] was -5%; in assay [2], 1%; in assay [3], -4%.

For `CS(=O)(=O)CCNCc1nc(-c2ccc3ncnc(Nc4ccc(F)c(Cl)c4)c3c2)cs1`, the inhibition in assay [1] was -2% and -3%; in assay [2], -3% and -1%; in assay [3], -6%.

Regarding `CN(C)CCOc1ccc(-c2nc(-c3ccncc3)c(-c3ccc4c(c3)CC/C4=N\O)[nH]2)cc1`, the inhibition in assay [1] is 0% and -1%; in assay [2] it was -1% and 0%; in assay [3], 3%.

As to `CCc1nn2ncccc2c1-c1ccnc(NC2CC2)n1`, the inhibition in assay [1] was -3% and -4%; in assay [2], -2% and -1%; in assay [3], -4%.

`O=C1Nc2ccc(I)cc2C1=Cc1cc(Br)c(O)c(Br)c1`: the inhibition in assay [1] was 0%; in assay [2] it was 3% and 2%; in assay [3], -2%.

Take `NC(=O)c1cccc(Nc2nccc(Nc3cccc4[nH]ncc34)n2)c1`: the inhibition was -2% and 2% in assay [1]; 41% and 42% in assay [2]; 79% in assay [3].

Turning to `CS(=O)(=O)Nc1ccc(-c2ccc3c(NC(=O)C4CC4)n[nH]c3c2)cc1`, the inhibition in assay [1] is -3% and 2%; in assay [2], 3% and 2%; in assay [3], 1%.
